Assay results as given in patent publication US9434743B2, “Indazole derivatives” (TAKEDA PHARMACEUTICAL COMPANY LIMITED, priority 2012, dated 2016).

Experiments:
human MetAP2 enzyme [1] = molecular target: T1, human MetAP2 enzyme (Homo sapiens, UniProt P50579); assay: MetAP2 enzyme assay, enzyme complexed with manganese ions; conditions: MetAP2 Mn pIC50, MetAP2 enzyme complexed with manganese ions; Met-AMC substrate at Km
human MetAP2 enzyme [2] = molecular target: T1, human MetAP2 enzyme; assay: MetAP2 enzyme assay, enzyme complexed with cobalt ions; conditions: MetAP2 Co pIC50, MetAP2 enzyme complexed with cobalt ions; Met-AMC substrate at Km

T1 sequence (P50579 whole entry): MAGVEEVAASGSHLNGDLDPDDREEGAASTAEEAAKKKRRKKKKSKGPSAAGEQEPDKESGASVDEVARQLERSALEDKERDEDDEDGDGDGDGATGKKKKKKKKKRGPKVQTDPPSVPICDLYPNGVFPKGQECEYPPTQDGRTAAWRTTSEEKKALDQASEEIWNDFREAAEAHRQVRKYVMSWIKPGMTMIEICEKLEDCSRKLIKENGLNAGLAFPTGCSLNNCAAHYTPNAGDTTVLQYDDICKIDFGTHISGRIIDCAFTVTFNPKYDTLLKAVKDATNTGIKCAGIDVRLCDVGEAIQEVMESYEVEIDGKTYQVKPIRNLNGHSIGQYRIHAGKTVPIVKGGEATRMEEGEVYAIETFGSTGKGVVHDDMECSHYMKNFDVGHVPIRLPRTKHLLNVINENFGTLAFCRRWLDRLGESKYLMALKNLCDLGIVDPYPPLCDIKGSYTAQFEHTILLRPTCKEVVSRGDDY

Structure (SMILES) | IC50 (human MetAP2 enzyme [1]) [nM] | IC50 (human MetAP2 enzyme [2]) [nM]
Cc1ccc(C(=O)N2CC(O)C2)cc1-c1cc(C(F)(F)F)cc2[nH]ncc12 [Example 369, (3-hydroxyazetidin-1-yl)(4-methyl-3-(6-(trifluoromethyl)-1H-indazol-4-yl)phenyl)methanone] | 10 | 31.6
CS(=O)(=O)c1ccccc1-c1cc(C(F)(F)F)cc2[nH]ncc12 [Example 365, 4-(2-(methylsulfonyl)phenyl)-6-(trifluoromethyl)-1H-indazole] | 79.4 | 1580
OCCNc1ncc(-c2cc(C(F)(F)F)cc3[nH]ncc23)cn1 [Example 209, 2-(5-(6-(trifluoromethyl)-1H-indazol-4-yl)pyrimidin-2-ylamino)ethanol] | 6.31 | 79.4
Cc1nc(NS(C)(=O)=O)ccc1-c1cc(C(F)(F)F)cc2[nH]ncc12 [Example 257, N-(6-methyl-5-(6-(trifluoromethyl)-1H-indazol-4-yl)pyridin-2-yl)methanesulfonamide] | 7.94 | 50.1
CNC(=O)c1ccc(-c2cc(C(F)(F)F)cc3[nH]ncc23)cc1 [Example 117, N-methyl-4-(6-(trifluoromethyl)-1H-indazol-4-yl)benzamide] | 3.16 | 15.8
Cc1nc(N2CCN[C@H](C)C2)ccc1-c1cc(C(F)(F)F)cc2[nH]ncc12 [Example 414, (R)-4-(2-methyl-6-(3-methylpiperazin-1-yl)pyridin-3-yl)-6-(trifluoromethyl)-1H-indazole] | 3.98 | 10
Cc1nc(NS(=O)(=O)c2cnn(C)c2)ccc1-c1cc(C(F)(F)F)cc2[nH]ncc12 [Example 259, 1-methyl-N-(6-methyl-5-(6-(trifluoromethyl)-1H-indazol-4-yl)pyridin-2-yl)-1H-pyrazole-4-sulfonamide] | 7.94 | 31.6
FC(F)(F)c1cc(-c2cccnc2)c2cn[nH]c2c1 [Example 19, 4-(pyridin-3-yl)-6-(trifluoromethyl)-1H-indazole] | 3.16 | 63.1
N#Cc1ccc(CO)c(-c2cc(C(F)(F)F)cc3[nH]ncc23)c1 [Example 140, 4-(hydroxymethyl)-3-(6-(trifluoromethyl)-1H-indazol-4-yl)benzonitrile] | 3.98 | 31.6
COc1ncc(N)cc1-c1cc(C(F)(F)F)cc2[nH]ncc12 [Example 187, 6-methoxy-5-(6-(trifluoromethyl)-1H-indazol-4-yl)pyridin-3-amine] | 7.94 | 79.4
Cc1cc(=O)n(Cc2ccccn2)cc1-c1cc(C(F)(F)F)cc2[nH]ncc12 [Example 406, 4-methyl-1-(pyridin-2-ylmethyl)-5-(6-(trifluoromethyl)-1H-indazol-4-yl)pyridin-2(1H)-one] | 15.8 | 79.4
Nc1ncc(-c2cc(C(F)(F)F)cc3[nH]ncc23)cc1C(=O)NCCO [Example 230, 2-amino-N-(2-hydroxyethyl)-5-(6-(trifluoromethyl)-1H-indazol-4-yl)nicotinamide] | 7.94 | 158
COc1ccc(CC(N)=O)cc1-c1cc(C(F)(F)F)cc2[nH]ncc12 [Example 350, 2-(4-methoxy-3-(6-(trifluoromethyl)-1H-indazol-4-yl)phenyl)acetamide] | 7.94 | 31.6
O=C(NCc1ccccc1)c1cccc(-c2cc(C(F)(F)F)cc3[nH]ncc23)c1 [Example 34, N-benzyl-3-(6-(trifluoromethyl)-1H-indazol-4-yl)benzamide] | 31.6 | 316
COCCNc1ncc(-c2cc(C(F)(F)F)cc3[nH]ncc23)cn1 [Example 293, N-(2-methoxyethyl)-5-(6-(trifluoromethyl)-1H-indazol-4-yl)pyrimidin-2-amine] | 6.31 | 100
Cc1nc(N2CCOCC2)ccc1-c1cc(C(F)(F)F)cc2[nH]ncc12 [Example 399, 4-(6-methyl-5-(6-(trifluoromethyl)-1H-indazol-4-yl)pyridin-2-yl)morpholine] | 7.94 | 25.1
CN(C)c1ncc(-c2cc(C(F)(F)F)cc3[nH]ncc23)cn1 [Example 247, N,N-dimethyl-5-(6-(trifluoromethyl)-1H-indazol-4-yl)pyrimidin-2-amine] | 3.98 | 50.1
OC(COc1ccccc1-c1cc(C(F)(F)F)cc2[nH]ncc12)CN1CCOCC1 (stereo not drawn) [Example 180, 1-morpholino-3-(2-(6-(trifluoromethyl)-1H-indazol-4-yl)phenoxy)propan-2-ol] | 39.8 | 1000
FC(F)(F)c1cc(-c2ccc3scnc3c2)c2cn[nH]c2c1 [Example 107, 5-(6-(trifluoromethyl)-1H-indazol-4-yl)benzo[d]thiazole] | 5.01 | 31.6
Cc1c(-c2cc(C(F)(F)F)cc3[nH]ncc23)ccc(=O)n1CC#N [Example 405, 2-(6-methyl-2-oxo-5-(6-(trifluoromethyl)-1H-indazol-4-yl)pyridin-1(2H)-yl)acetonitrile] | 10 | 79.4

Structure (SMILES) | IC50 (human MetAP2 enzyme [1]) [nM] | IC50 (human MetAP2 enzyme [2]) [nM]
CNc1nc(C)c(-c2cc(C(F)(F)F)cc3[nH]ncc23)cc1C(=O)N1CC(O)C1 [Example 397, (3-hydroxyazetidin-1-yl)(6-methyl-2-(methylamino)-5-(6-(trifluoromethyl)-1H-indazol-4-yl)pyridin-3-yl)methanone] | 3.98 | 15.8
Cn1cc(C(=O)NCC(O)CO)cc(-c2cc(C(F)(F)F)cc3[nH]ncc23)c1=O (stereo not drawn) [Example 356, N-(2,3-dihydroxypropyl)-1-methyl-6-oxo-5-(6-(trifluoromethyl)-1H-indazol-4-yl)-1,6-dihydropyridine-3-carboxamide] | 6.31 | 316
NC(=O)c1ncc(-c2cc(C(F)(F)F)cc3[nH]ncc23)cn1 [Example 295, 5-(6-(trifluoromethyl)-1H-indazol-4-yl)pyrimidine-2-carboxamide] | 6.31 | 200
FC(F)(F)c1cc(-c2cccc3cccnc23)c2cn[nH]c2c1 [Example 31, 8-(6-(trifluoromethyl)-1H-indazol-4-yl)quinoline] | 15.8 | 200
Cc1c[nH]c2ncc(-c3cc(C(F)(F)F)cc4[nH]ncc34)cc12 [Example 340, 4-(3-methyl-1H-pyrrolo[2,3-b]pyridin-5-yl)-6-(trifluoromethyl)-1H-indazole] | 15.8 | 100
CN1CCN(C(=O)c2cc(-c3cc(C(F)(F)F)cc4[nH]ncc34)c[nH]c2=O)CC1 [Example 227, 3-(4-methylpiperazine-1-carbonyl)-5-(6-(trifluoromethyl)-1H-indazol-4-yl)pyridin-2(1H)-one] | 7.94 | 126
COc1cccc(-c2cc(C(F)(F)F)cc3[nH]ncc23)c1OC [Example 87, 4-(2,3-dimethoxyphenyl)-6-(trifluoromethyl)-1H-indazole] | 7.94 | 126
FC(F)(F)c1cc(-c2c[nH]c3ncncc23)c2cn[nH]c2c1 [Example 155, 5-(6-(trifluoromethyl)-1H-indazol-4-yl)-7H-pyrrolo[2,3-d]pyrimidine] | 15.8 | 63.1
CCOC(=O)Cn1cc(-c2cc(C(F)(F)F)cc3[nH]ncc23)cn1 [Example 260, ethyl 2-(4-(6-(trifluoromethyl)-1H-indazol-4-yl)-1H-pyrazol-1-yl)acetate] | 6.31 | 100
Cc1n[nH]c(C)c1-c1cc(C(F)(F)F)cc2[nH]ncc12 [Example 83, 4-(3,5-dimethyl-1H-pyrazol-4-yl)-6-(trifluoromethyl)-1H-indazole] | 20 | 39.8
O=C(O)Cn1cc(-c2cc(C(F)(F)F)cc3[nH]ncc23)ccc1=O [Example 374, 2-(2-oxo-5-(6-(trifluoromethyl)-1H-indazol-4-yl)pyridin-1(2H)-yl)acetic acid] | 63.1 | 1580
O=S(=O)(c1ccc(-c2cc(C(F)(F)F)cc3[nH]ncc23)cc1)N1CCOCC1 [Example 225, 4-(4-(6-(trifluoromethyl)-1H-indazol-4-yl)phenylsulfonyl)morpholine] | 7.94 | 100
Cc1cc(S(N)(=O)=O)ccc1-c1cc(C(F)(F)F)cc2[nH]ncc12 [Example 186, 3-methyl-4-(6-(trifluoromethyl)-1H-indazol-4-yl)benzenesulfonamide] | 7.94 | 20
Cn1cc2c(-c3cc(C(F)(F)F)cc4[nH]ncc34)cccc2n1 [Example 15, 2′-methyl-6-(trifluoromethyl)-1H,2′H-4,4′-biindazole] | 6.31 | 10
Cc1cccnc1-c1cc(C(F)(F)F)cc2[nH]ncc12 [Example 135, 4-(3-methylpyridin-2-yl)-6-(trifluoromethyl)-1H-indazole] | 10 | 158
COC(=O)c1ccc(OC)c(-c2cc(C(F)(F)F)cc3[nH]ncc23)c1 [Example 263, methyl 4-methoxy-3-(6-(trifluoromethyl)-1H-indazol-4-yl)benzoate] | 15.8 | 20
FC(F)(F)c1cc(-c2ccc(OCC3CC3)nc2)c2cn[nH]c2c1 [Example 58, 4-(6-(cyclopropylmethoxy)pyridin-3-yl)-6-(trifluoromethyl)-1H-indazole] | 12.6 | 126
CC(C)CNC(=O)c1cccc(-c2cc(C(F)(F)F)cc3[nH]ncc23)c1 [Example 28, N-isobutyl-3-(6-(trifluoromethyl)-1H-indazol-4-yl)benzamide] | 25.1 | 158
FC(F)(F)c1cc(-c2cnn(Cc3ccncc3)c2)c2cn[nH]c2c1 [Example 43, 4-(1-(pyridin-4-ylmethyl)-1H-pyrazol-4-yl)-6-(trifluoromethyl)-1H-indazole] | 6.31 | 79.4
